Assay results: US20140024663A1, “ATB(0,+) AMINO ACID TRANSPORTER AS A DRUG TARGET FOR TREATMENT OF ESTROGEN RECEPTOR-POSITIVE BREAST CANCER” (GEORGIA HEALTH SCIENCES UNIVERSITY RESEARCH INSTITUTE, INC., priority 2012, published 2014)

Experiments:
MB231 cells = assay: Cell death by propidium iodide staining and FACS cell cycle analysis; assay type: cell-based, human; conditions: MB231, α-MT 2.5 mM and 3-MA 10 mM, either alone or together, 48 h
Procedure: (§1) FIGS. 9A to 9D. Influence of α-MT on mTOR activity In FIG. 9A, MCF7 and MB231 cells were treated without or with α-MT (2.5 mM) for 24 h, 48 h, or 72 h, and then the cell lysates were used for western blot. Influence of α-MT with or without 3-MA on cell death. In FIG. 9B, MCF7, MB231, and MCF10A cells were treated for 48 h without or with α-MT (2.5 mM), 3-MA (10 mM), or α-MT (2.5 mM) plus 3-MA (10 mM), and then analyzed for cell death by propidium iodide (PI) staining and FACS-based cell cycle analysis. In FIG. 9C, MCF7 cells were treated for 48 h without or with α-MT (2.5 mM), 3-MA (10 mM), or α-MT (2.5 mM) plus 3-MA (10 mM), and then analyzed for apoptotic cell death by annexin V labeling. In FIG. 9D, MCF7 and MB231 cells were treated without or with 2.5 mM α-MT for 24 h, 48 h, or 72 h. Cell lysates were then used for western blot analysis of lamin A degradation product using an antibody that recognizes specifically the proteolytic cleavage product. β-Actin was used as an internal control.
(§2) Apoptosis assay. Fluorescence-activated cell sorting (FACS) was used to monitor cell death. MCF7 cells were treated with or without α-MT, 3-MA, or α-MT plus 3-MA. Control and treated cells were then fixed in 50% ethanol, treated with 0.1% sodium citrate, 1 mg/ml RNase A, and 50 μg/ml propidium iodide, and then subjected to FACS analysis (FACS Caliber, Becton Dickinson). FITC-labeled annexin V was used to differentiate apoptotic cell death from necrotic cell death.

MCF10A cells = assay: as above; assay type: cell-based, human; conditions: α-MT 2.5 mM and 3-MA 10 mM, either alone or together, 48 h
Procedure: as §1, §2

MCF7 cells [1] = assay: Analysis of autophagy (LC3 localization, electron microscopy, autophagosomal proteolysis, GFP-LC3); assay type: cell-based, human; conditions: 48 h
Procedure: FIGS. 6A to 6C. Effects of SLC6A14 blockade with α-MT in breast cancer cells. In FIG. 6A, MCF10A (a non-malignant mammary epithelial cell line), MCF7 (an ER-positive breast cancer cell line), and MB231 (an ER-negative breast cancer cell line) cells were treated with or without 2.5 mM α-MT for 24, 48, or 72 h and then used for analysis of asparagine synthetase (ASNS) and CHOP mRNA levels. In FIG. 6B, MCF7, MB231 and MCF10A cells were treated with or without 2.5 mM α-MT for 48 h and then used for immunocytochemical analysis of the constitutively expressed LC-3. In FIG. 6C, MCF7 cells were treated with (“b” and “c”) or without (“a”) α-MT (2.5 mM) for 48 h and then used for electron microscopy. Arrows indicate sequestration of cytoplasm and organelles in pre-autophagosomes and autophagosome, and the asterisk indicates condensed chromatin. N, nucleus.
FIGS. 7A and 7B. Induction of autophagy in MCF7 cells by α-MT. […] The concentrations of α-MT and 3-MA, when present, were 2.5 mM and 10 mM. The treatment time was 48 h. The extent of proteolysis was determined by the radioactivity present in the protein-free supernatant. […] In FIG. 7B, MCF7 cells were transfected with an GFP-LC3 expression plasmid, and 24 h later, the cells were treated with or without α-MT (2.5 mM) in the presence or absence of 3-MA (10 mM) for 48 h. At the end of the treatment, cells were fixed, and the percent of cells with punctate localization of the ectopically expressed GFP-LC3 was quantified. “a” represents compared to control; “b” represents compared to treatment with α-MT alone; and “c” represents compared to treatment with […]; *, p<0.001.
Analysis of autophagy. Autophagy was analyzed as described previously (Periyasamy-Thandavan et al., 2010, Autophagy; 6:19-35; and Samaddar et al., 2008, Mol Cancer Ther; 7:2977-2987) by monitoring the localization pattern of constitutively expressed LC3 as well as that of ectopically expressed GFP-LC3. In the case of the constitutively expressed LC3, cells were treated without or with α-MT, and then used for immunocytochemical analysis of LC3 localization pattern. For ectopically expressed LC3, cells were transfected with a GFP-LC3 expression plasmid. Briefly, cells were plated on a coverslip to reach ˜50% confluence and transfection of these cells was done with 1 μg of the plasmid using FuGENE transfection reagent (Roche, Nutley, N.J.). […] At the end of the treatment, cells were fixed with 4% paraformaldehyde and examined by fluorescence microscopy to count the number of cells with punctate GFP-LC3. Autophagosomal proteolysis was quantified as described previously (Periyasamy-Thandavan et al., 2010, Autophagy; 6:19-35). […]

MCF7 cells [2] = assay: Apoptotic cell death by annexin V labeling; assay type: cell-based, human; conditions: 48 h
Procedure: as §1, §2

Human SLC6A14 = molecular target: T1, Human SLC6A14 (Homo sapiens, UniProt Q9UN76); assay: SLC6A14 transport function in X. laevis oocytes (two-microelectrode voltage-clamp); assay type: cell-based; conditions: for Hill coefficient of Na+-activation kinetics (number of Na+ involved in the activation process): SLC6A14-mediated transport, amino acid 1 mM, Cl- constant at 100 mM, three oocytes; for inward currents on perifusion of SLC6A14-expressing oocytes: amino acid 100 M (so in the source), in the presence of NaCl
T1 construct: expressed in transfected cells; host or cells: Xenopus laevis oocytes, microinjected with human SLC6A14 cRNA
T1 sequence (Q9UN76 1-642): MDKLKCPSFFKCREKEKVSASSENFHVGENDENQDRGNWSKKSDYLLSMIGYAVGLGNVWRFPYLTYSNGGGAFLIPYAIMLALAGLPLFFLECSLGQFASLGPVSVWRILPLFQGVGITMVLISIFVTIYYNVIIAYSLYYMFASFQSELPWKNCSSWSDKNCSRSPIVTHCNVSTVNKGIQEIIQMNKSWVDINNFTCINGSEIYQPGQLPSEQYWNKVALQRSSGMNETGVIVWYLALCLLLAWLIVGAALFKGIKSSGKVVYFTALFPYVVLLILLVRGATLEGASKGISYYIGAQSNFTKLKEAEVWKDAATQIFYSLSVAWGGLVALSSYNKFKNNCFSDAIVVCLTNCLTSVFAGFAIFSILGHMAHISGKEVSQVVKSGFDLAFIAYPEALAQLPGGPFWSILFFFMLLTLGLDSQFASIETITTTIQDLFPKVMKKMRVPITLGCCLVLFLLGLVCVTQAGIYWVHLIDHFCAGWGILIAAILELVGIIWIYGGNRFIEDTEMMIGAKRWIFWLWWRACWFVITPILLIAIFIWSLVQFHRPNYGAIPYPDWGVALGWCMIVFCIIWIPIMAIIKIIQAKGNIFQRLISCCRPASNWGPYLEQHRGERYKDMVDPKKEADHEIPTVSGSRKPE
Description: FIGS. 3A and 3B. Natactivation kinetics of SLC6A14-mediated transport of leucine (FIG. 3A) and arginine and glutamine (FIG. 3B). Human SLC6A14 was expressed heterologously in X. laevis oocytes by microinjection of cRNA. Four days following injection, oocytes were used for electrophysiological studies using the two-microelectrode voltage-clamp method. […] Since the expression levels varied from oocyte to oocyte resulting in varying magnitudes of amino acid-induced currents, the currents were normalized by taking the magnitude of the currents induced at 100 mM Na^+ as 1 in each oocyte and calculating the magnitude of the currents induced at other concentrations of Na^+ as a fraction of this maximal current. The experiments were done with three different oocytes and the results are given as means±SE. Insets, Hill plots.
FIG. 4. Cl^−-activation kinetics of SLC6A14-mediated transport of leucine, arginine, and glutamine. […] The experiments were done with three different oocytes and the results are given as means±SE.
FIGS. 5A to 5C. Blockade of SLC6A14-mediated transport of leucine (FIG. 5A), glutamine (FIG. 5B), and arginine (FIG. 5C) by α-MT. Oocytes injected with human SLC6A14 cRNA were perifused with 100 µM leucine, 100 μM glutamine, or 100 μM arginine under varying experimental conditions as indicated.
Analysis of SLC6A14 transport function in X. laevis oocytes. SLC6A14-mediated transport of leucine, glutamine, and arginine and its blockade by α-MT were studied using the X. laevis oocyte heterologous expression system as described previously (Hatanaka et al., 2001, J Clin Invest; 107:1035-1043; and Karunakaran et al., 2008, Biochem J; 414:343-355). Human cloned SLC6A14 cDNA was used in these studies.

Hill coefficient of Na+-activation kinetics (number of Na+ involved in the activation process) (Human SLC6A14) | inward currents on perifusion of SLC6A14-expressing oocytes (Human SLC6A14) | Structure (SMILES) | effect on cell death (MB231 cells) | effect on cell death (MCF10A cells) | inhibition of α-MT-induced proteolysis of 14C-labeled proteins (MCF7 cells [1]; MCF7, cotreatment 3-MA 10 mM with α-MT 2.5 mM) | block of autophagy induced by α-MT (MCF7 cells [1]; MCF7 transfected with GFP-LC3, 3-MA 10 mM plus α-MT 2.5 mM) | apoptotic cell death by annexin V labeling (MCF7 cells [2]; MCF7, 3-MA 10 mM combined with α-MT 2.5 mM, compared with either agent alone) | apoptotic cell death by annexin V labeling (MCF7 cells [2]; MCF7, single agent (α-MT 2.5 mM or 3-MA 10 mM))
 |  | Cn1cnc(N)c2ncnc1-2 [3-MA, 3-methyladenine, reference compound] | very little, if any, effect | very little, if any, effect | inhibited significantly | > 90% | much greater | significant apoptosis
2.4 | induced inward currents | NC(=O)CC[C@H](N)C(=O)O [glutamine] |  |  |  |  |  | 
2.2 | induced inward currents | CC(C)C[C@H](N)C(=O)O [leucine] |  |  |  |  |  | 

Structure (SMILES) | Hill coefficient of Na+-activation kinetics (number of Na+ involved in the activation process) (Human SLC6A14) | inward currents on perifusion of SLC6A14-expressing oocytes (Human SLC6A14) | effect on cell death (MB231 cells) | effect on cell death (MCF10A cells) | inhibition of α-MT-induced proteolysis of 14C-labeled proteins (MCF7 cells [1]; MCF7, cotreatment 3-MA 10 mM with α-MT 2.5 mM) | block of autophagy induced by α-MT (MCF7 cells [1]; MCF7 transfected with GFP-LC3, 3-MA 10 mM plus α-MT 2.5 mM) | apoptotic cell death by annexin V labeling (MCF7 cells [2]; MCF7, 3-MA 10 mM combined with α-MT 2.5 mM, compared with either agent alone) | apoptotic cell death by annexin V labeling (MCF7 cells [2]; MCF7, single agent (α-MT 2.5 mM or 3-MA 10 mM))
N=C(N)NCCC[C@H](N)C(=O)O [arginine] | 2.1 | induced inward currents |  |  |  |  |  | 
